This is an account of results in article PMC9942528 (Journal of medicinal chemistry, 2022).

Data set [1] in a line: Stability assay in rat liver microsomes. To be noted: rat microsomes. It is filed as in vitro ADME.
Another data set deals with murine N9 cells. The data set is described as follows: ELISA of TNF-α and IL-1β in N9 cells, resting and LPS-stimulated. The format is cell-based, mouse.
In data set [2] the test system is rat primary microglial cells. The experiment in a line: Nitric oxide. It is filed as cell-based.
A further data set deals with caspase-3. The experiment in a line: Caspase-3 activity in rat primary microglial cells. To be noted: 0.1 μM, LPS 100 ng/mL 24 h. The format is cell-based.
Data set [3] in a line: In vivo pharmacokinetics in mice. To be noted: for Tmax: male, CD-1, mouse, plasma.
Data set [4] has as its system rat primary microglial cells. The data set is described as follows: LDH release assay in rat primary microglial cells.
The conditions of data set [5]: rat microsomes; ref [25]; cited from earlier work.
The test system of data set [6] is rat primary microglial cells. To be noted: rat primary microglial cultures stimulated with LPS; ref [25]; cited from earlier work.
The conditions of data set [7]: hCMEC/D3 cells; ref [25]; cited from earlier work.
Data set [8] relates to mouse hippocampal organotypic cultures. To be noted: OHCs stimulated with LPS, pre-treatment; ref [27]; cited from earlier work.
A further data set concerns APP/PS1 mouse model. The following applies: systemic administration, ref [28]; cited from earlier work.
For data set [9], the target named is T1, human FPR2 (Homo sapiens, UniProt P25090).
T1 sequence (P25090 1-351): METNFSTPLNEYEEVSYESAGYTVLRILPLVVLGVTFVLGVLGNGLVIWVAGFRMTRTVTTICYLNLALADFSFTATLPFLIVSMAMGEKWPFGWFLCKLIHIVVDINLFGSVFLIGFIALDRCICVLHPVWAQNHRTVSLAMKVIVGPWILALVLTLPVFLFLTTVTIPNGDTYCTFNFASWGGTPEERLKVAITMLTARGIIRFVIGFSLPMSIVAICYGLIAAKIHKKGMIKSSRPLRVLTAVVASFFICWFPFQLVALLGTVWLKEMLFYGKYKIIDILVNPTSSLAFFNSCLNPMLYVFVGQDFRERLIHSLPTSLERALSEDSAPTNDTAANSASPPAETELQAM
The data set is described as follows: Ca2+ mobilization. To be noted: EC50 FPR1 vs EC50 FPR2.

The target of data set [10] is T1, human FPR2. To be noted: functional antagonism vs WKYMVM.

Like-named read-outs stand apart in the source and are kept apart here. Marks after values point to notes of the source that are not given here.

As for `N#Cc1ccc(C[C@H](NC(=O)Nc2ccc(F)cc2)C(=O)N2CCc3ccc(F)cc32)cc1` [(S)-11l, (S)-1-(3-(4-Cyanophenyl)-1-(6-fluoroindolin-1-yl)-1-oxopropan-2-yl)-3-(4-fluorophenyl)urea], the “Metabolic stability, % after 30 min incubation” value in data set [1] (10 μM, parent remaining) is listed as 33%. In the data set with murine N9 cells (0.5 to 5 μM), the “release of IL-1β and TNF-α under resting conditions” value is “did not induce the release”. For the same compound, the “effect on LPS-induced cytokines (IL-1β, TNF-α) production” value in the data set on murine N9 cells (LPS 100 ng/mL 24 h) is listed as “effectively decrease LPS-induced cytokines production”. The “effect on LPS-induced NO production” value in [2] (0.1 μM, LPS 100 ng/mL 24 h) is “effectively blocked”. Further, the “effect on NO production under resting conditions” value in data set [2] (rat primary microglial cells) is recorded as “did not induce any effect”. Also, the “effect on LPS-induced activation of caspase-3” value with caspase-3 was “significantly reduced this activation”. Also, the Tmax in data set [3] (ip, 10 mg/kg) was 30 min; in data set [3] (iv, 1 mg/kg), 5 min. The “blood-brain barrier permeation” value in data set [3] (mice, i.p. 10 mg/kg) is “able to permeate the blood–brain barrier and to accumulate in the brain”. The “time until which the compound was detectable in plasma” value in data set [3] (mice, i.v. 1 mg/kg) is 4 h. In [4] (0.1 μM, LPS 100 ng/mL 24 h), the “effect on LPS-induced cell death (LDH release)” value is recorded as “effectively blocked LPS-induced cell death”. For the same compound, the “effect on cell viability (LDH) under resting conditions” value in [4] (rat primary microglial cells) was “did not induce any effect”.

Regarding `N#Cc1ccc(C[C@H](NC(=O)Nc2ccc(F)cc2)C(=O)NCC2(c3ccc(F)c(Cl)c3)CC2)cc1` [Compound 2], the “Metabolic stability, % after 30 min incubation” value in [5] is listed as 33^b %. The “release of IL-1β and TNF-α” value in [6] is “reduces the release”. The “efflux ratio ER (BA/AB)” value in data set [7] is on record as 2.6. Further, in data set [8], the “release of TNF-α and IL-1β” value is “attenuated the release of TNF-α and IL-1β”. Besides, the “neuronal survival, microglial cell density and plaque load” value in the data set with APP/PS1 mouse model was “improved neuronal survival and decreased microglial cell density and plaque load”. The “selectivity FPR2 versus FPR1” value at human FPR2 [9] is on record as “almost equipotent at both receptors”.

For the compound `N#Cc1ccc(C[C@H](NC(=O)Nc2ccc(F)cc2)C(=O)N2CCc3ccccc3C2)cc1` [(S)-11f, (S)-1-(3-(4-Cyanophenyl)-1-(3,4-dihydroisoquinolin-2(1H)-yl)-1oxopropan-2-yl)-3-(4-fluorophenyl)urea], the “less stable than (R)- and (S)-11b, (R)- and (S)-11c, and 2” value in data set [1] (recovery after 30 min) is 2–3 fold. Also, on human FPR2 [10], the “IC50 at FPR2, range in words” value is “nanomolar range”.
